According to patent US12065436B2, “Cardiac sarcomere inhibitors” (Cytokinetics, Inc., priority 2018, dated 2024):
pIC50: −log10 of the molar value.

Experiments:
[1] = target: bovine cardiac myofibrils (full-length cardiac myosin ATPase in the native sarcomere) (Bos taurus (Bovine), UniProt Q9BE39); assay: Skinned bovine cardiac myofibril ATPase assay (PK/LDH-coupled); format: biochemical; details: Ca2+ activating to 75% of maximal rate
Outline: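 Triton-skinned bovine left-ventricle myofibrils (1 mg/mL) in PM 12 buffer (12 mM PIPES, 2 mM MgCl2, pH 6.8) with 50 μM ATP, 0.6 mM EGTA and CaCl2 set for 50% or 75% activation. Steady-state ATPase inhibition followed by PK/LDH-coupled NADH oxidation at 340 nm.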

[2] = system: R403Q mice (alpha cardiac myosin heavy chain mutation, familial hypertrophic cardiomyopathy model); assay: Longitudinal echocardiography in R403Q mouse model of HCM; format: in vivo; details: compound formulated in chow for 24 weeks, echocardiography every 4 weeks, versus untreated R403Q mice
Experimental: Assessment over time of in vivo cardiac function by echocardiography was performed using a previously reported mouse model of familial hypertrophic cardiomyopathy, which was generated by an arginine to glutamine mutation at residue 403 (R403Q) of the alpha cardiac myosin heavy chain (MHC) gene (Geisterfer-Lowrance et al., Science. 1996 May 3; 272(5262):731-4). Cardiac dysfunction, fibrosis, and measures of cardiac hypertrophy (including ventricular wall thickness) increase with age in this mouse model (Geisterfer-Lowrance, supra; Jiang et al., Science. 2013, 342(6154):111-4).
R403Q mice received vehicle or Compound 142 formulated in chow for 24 weeks. Longitudinal echocardiography measurements were performed every 4 weeks. Echocardiography measurements were taken with mice under isoflurane (1-3%) anesthesia. 2-D M-mode images of the left ventricle were acquired in short-axis view. In vivo fractional shortening was determined by M-mode image analysis with the following calculation: ((End diastolic diameter−end systolic diameter)/end diastolic diameter×100).

bovine cardiac myofibrils (full-length cardiac myosin ATPase in the native sarcomere), sequence (Q9BE39 whole entry): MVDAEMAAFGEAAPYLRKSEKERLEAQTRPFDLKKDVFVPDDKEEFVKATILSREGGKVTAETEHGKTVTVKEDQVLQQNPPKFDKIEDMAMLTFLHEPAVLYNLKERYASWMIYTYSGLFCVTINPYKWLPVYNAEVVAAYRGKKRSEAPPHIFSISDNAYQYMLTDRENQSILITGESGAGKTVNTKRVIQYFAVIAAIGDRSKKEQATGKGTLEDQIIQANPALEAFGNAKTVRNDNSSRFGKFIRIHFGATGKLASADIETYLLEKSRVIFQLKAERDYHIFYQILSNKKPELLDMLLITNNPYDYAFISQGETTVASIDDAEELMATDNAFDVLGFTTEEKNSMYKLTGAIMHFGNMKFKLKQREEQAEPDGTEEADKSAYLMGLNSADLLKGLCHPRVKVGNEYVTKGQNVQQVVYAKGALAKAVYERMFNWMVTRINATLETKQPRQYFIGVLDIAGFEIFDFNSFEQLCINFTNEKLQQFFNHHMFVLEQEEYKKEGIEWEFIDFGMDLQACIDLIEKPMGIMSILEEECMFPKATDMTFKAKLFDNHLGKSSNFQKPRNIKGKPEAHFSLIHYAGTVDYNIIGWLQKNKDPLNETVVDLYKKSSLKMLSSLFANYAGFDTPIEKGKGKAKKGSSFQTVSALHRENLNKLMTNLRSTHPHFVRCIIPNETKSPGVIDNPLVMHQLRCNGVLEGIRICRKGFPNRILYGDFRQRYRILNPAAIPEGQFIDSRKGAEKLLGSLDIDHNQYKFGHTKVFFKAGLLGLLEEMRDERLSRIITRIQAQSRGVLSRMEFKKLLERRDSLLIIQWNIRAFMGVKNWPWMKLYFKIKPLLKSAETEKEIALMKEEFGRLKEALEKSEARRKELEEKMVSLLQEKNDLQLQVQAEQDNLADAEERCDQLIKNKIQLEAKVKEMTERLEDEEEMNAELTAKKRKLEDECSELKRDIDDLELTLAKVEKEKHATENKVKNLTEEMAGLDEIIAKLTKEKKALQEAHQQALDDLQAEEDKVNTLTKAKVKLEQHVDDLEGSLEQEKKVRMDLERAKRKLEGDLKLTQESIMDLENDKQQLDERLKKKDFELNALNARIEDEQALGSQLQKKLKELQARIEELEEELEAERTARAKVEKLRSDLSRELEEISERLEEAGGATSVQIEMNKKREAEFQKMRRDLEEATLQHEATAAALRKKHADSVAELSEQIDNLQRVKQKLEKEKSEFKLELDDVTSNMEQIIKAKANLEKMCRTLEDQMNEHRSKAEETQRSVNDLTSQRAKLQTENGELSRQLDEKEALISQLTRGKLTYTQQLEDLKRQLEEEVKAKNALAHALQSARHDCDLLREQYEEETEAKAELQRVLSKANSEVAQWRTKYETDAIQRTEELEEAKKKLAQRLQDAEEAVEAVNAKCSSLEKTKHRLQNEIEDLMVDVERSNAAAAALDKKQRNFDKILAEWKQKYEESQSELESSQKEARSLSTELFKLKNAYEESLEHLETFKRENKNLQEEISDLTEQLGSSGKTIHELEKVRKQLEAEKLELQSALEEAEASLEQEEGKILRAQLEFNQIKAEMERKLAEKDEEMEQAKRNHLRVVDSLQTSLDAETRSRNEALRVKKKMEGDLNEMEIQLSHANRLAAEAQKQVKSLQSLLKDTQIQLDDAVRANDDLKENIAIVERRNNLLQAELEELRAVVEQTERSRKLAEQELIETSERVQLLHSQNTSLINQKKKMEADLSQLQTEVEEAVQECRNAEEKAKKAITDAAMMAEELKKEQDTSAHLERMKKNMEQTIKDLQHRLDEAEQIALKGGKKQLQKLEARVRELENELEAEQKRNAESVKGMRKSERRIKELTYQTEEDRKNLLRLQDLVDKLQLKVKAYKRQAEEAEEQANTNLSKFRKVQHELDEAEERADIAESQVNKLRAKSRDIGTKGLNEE
bovine cardiac myofibrils (full-length cardiac myosin ATPase in the native sarcomere), sequence (P85100 whole entry partner): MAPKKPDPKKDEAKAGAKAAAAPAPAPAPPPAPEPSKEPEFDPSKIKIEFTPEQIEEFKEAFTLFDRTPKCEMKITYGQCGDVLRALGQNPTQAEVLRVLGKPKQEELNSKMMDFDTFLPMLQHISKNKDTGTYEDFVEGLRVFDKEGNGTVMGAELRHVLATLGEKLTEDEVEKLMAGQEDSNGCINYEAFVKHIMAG
bovine cardiac myofibrils (full-length cardiac myosin ATPase in the native sarcomere), sequence (Q3SZE5 whole entry partner): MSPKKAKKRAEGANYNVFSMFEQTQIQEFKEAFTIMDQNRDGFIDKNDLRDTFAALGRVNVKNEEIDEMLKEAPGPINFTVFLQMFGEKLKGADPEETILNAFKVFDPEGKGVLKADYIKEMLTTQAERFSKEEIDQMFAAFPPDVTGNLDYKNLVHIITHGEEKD

- CDMF75 IC15 ([1]; concentration giving 15% inhibition): 0.5 µM
- pIC50 ([1]; read-out: CDMF75 IC50): 5.62
Compound: CC(C)c1nc(-c2ccc3c(c2)CC[C@H]3NC(=O)c2nnn(C)n2)no1 [Compound 142, (R)—N-(5-(5-isopropyl-1,2,4-oxadiazol-3-yl)-2,3-dihydro-1H-inden-1-yl)-2-methyl-2H-tetrazole-5-carboxamide]
- septal and left ventricular posterior wall thickness [2]: attenuated increases in septal and left ventricular posterior wall thickness
